Assays:
Format in all cases: biochemical
SIK3 = target: T1, SIK3 (Homo sapiens, UniProt Q9Y2K2); test: SIK3 kinase assay, IMAP fluorescence polarization; conditions: 50 or 100 μM ATP, average
T1 construct: purchased Life Technologies
Procedure, shortened: (§1)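 Kinases (0.6–13 nM) incubated 60 min at room temperature with 100 nM FAM-Abltide, FAM-Srctide or FAM-HDAC peptide and 50 or 100 μM ATP in 20 mM Tris pH 7.2, 4 mM MgCl2, 0.2% BSA, 2 mM DTT. IMAP binding reagent (85:15 buffer A:B; 30:70 for Src) stopped reactions; fluorescence polarization read; compounds tested 0.00005–1 μM.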

SIK1 = target: T2, SIK1 (Homo sapiens, UniProt P57059); test: SIK1 kinase assay, IMAP fluorescence polarization; conditions: 50 or 100 μM ATP, average
T2 construct: purchased Life Technologies
Procedure, shortened: as §1

Src = target: T3, Src (Homo sapiens, UniProt P12931); test: Src kinase assay, IMAP fluorescence polarization; conditions: 50 or 100 μM ATP, average
T3 construct: purchased Life Technologies
Procedure, shortened: as §1

EPHA2 = target: T4, EPHA2 (Homo sapiens, UniProt P29317); test: EPHA2 kinase assay, IMAP fluorescence polarization; conditions: 50 or 100 μM ATP, Tris pH 8.5, average
T4 construct: purchased Life Technologies

SIK2 = target: T5, SIK2 (Homo sapiens, UniProt Q9H0K1); test: SIK2 kinase assay, IMAP fluorescence polarization; conditions: 50 or 100 μM ATP, average
T5 construct: purchased Life Technologies
Procedure, shortened: as §1

Abl = target: T6, Abl (Homo sapiens, UniProt P00519); test: Abl kinase assay, IMAP fluorescence polarization; conditions: 50 or 100 μM ATP, average
T6 construct: purchased Life Technologies
Procedure, shortened: as §1

T4 sequence (P29317 24-976): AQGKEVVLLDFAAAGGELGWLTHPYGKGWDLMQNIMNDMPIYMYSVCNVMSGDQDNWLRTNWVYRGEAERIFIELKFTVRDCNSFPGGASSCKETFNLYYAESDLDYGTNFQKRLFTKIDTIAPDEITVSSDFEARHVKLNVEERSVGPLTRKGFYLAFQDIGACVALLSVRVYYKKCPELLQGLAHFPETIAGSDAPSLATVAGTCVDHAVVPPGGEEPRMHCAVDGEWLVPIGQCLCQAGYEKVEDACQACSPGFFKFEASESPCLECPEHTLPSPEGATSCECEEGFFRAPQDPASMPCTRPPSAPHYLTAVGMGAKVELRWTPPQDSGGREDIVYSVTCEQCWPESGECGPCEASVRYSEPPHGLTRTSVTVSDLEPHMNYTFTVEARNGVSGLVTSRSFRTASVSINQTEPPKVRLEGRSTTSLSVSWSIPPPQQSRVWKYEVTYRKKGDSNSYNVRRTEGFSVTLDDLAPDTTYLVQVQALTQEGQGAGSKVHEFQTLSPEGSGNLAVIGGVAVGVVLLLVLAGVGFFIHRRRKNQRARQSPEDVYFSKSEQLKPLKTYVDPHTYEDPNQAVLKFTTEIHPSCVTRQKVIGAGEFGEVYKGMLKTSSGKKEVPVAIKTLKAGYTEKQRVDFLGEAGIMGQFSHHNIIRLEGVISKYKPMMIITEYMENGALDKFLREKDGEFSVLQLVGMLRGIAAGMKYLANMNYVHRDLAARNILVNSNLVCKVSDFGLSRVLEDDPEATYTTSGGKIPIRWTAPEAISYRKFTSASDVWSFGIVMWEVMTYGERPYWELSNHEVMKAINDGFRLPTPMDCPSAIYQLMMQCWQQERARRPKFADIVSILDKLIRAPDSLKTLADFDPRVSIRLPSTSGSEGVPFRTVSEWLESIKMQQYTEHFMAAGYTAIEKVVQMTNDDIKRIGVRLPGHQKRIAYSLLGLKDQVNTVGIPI
T1 sequence (Q9Y2K2 whole entry): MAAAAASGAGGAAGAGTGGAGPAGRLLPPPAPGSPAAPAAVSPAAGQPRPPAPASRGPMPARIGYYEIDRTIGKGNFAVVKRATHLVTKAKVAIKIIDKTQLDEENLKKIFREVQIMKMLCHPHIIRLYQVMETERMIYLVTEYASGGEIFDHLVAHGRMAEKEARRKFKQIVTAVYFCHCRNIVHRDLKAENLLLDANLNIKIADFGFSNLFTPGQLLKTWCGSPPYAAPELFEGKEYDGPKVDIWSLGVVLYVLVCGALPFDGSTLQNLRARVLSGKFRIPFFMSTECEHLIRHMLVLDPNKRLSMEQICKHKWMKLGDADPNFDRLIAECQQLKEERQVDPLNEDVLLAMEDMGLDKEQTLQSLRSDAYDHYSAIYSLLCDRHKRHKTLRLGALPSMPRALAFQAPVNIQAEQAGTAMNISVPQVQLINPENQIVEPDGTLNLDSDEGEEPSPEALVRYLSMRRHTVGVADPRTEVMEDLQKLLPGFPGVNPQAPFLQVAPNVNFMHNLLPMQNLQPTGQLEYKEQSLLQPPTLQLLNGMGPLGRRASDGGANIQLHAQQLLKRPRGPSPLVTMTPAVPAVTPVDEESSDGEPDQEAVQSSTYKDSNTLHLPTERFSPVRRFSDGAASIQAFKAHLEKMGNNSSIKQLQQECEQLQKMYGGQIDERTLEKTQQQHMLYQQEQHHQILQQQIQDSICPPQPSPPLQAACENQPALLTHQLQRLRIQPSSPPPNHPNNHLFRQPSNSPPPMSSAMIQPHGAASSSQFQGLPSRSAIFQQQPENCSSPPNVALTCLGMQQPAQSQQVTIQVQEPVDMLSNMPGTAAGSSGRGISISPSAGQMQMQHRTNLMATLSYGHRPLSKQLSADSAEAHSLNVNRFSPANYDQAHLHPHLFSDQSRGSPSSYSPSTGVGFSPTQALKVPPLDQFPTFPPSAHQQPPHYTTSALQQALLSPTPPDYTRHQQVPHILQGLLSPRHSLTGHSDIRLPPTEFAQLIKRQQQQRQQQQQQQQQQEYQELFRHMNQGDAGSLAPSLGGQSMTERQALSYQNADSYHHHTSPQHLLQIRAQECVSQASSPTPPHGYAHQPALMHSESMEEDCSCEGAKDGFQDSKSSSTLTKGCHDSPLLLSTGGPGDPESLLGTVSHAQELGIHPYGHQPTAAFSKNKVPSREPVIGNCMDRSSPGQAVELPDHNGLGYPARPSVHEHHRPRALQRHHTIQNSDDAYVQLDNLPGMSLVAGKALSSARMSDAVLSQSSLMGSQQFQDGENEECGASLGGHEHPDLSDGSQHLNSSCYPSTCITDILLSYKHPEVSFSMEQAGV
T5 sequence (Q9H0K1 whole entry): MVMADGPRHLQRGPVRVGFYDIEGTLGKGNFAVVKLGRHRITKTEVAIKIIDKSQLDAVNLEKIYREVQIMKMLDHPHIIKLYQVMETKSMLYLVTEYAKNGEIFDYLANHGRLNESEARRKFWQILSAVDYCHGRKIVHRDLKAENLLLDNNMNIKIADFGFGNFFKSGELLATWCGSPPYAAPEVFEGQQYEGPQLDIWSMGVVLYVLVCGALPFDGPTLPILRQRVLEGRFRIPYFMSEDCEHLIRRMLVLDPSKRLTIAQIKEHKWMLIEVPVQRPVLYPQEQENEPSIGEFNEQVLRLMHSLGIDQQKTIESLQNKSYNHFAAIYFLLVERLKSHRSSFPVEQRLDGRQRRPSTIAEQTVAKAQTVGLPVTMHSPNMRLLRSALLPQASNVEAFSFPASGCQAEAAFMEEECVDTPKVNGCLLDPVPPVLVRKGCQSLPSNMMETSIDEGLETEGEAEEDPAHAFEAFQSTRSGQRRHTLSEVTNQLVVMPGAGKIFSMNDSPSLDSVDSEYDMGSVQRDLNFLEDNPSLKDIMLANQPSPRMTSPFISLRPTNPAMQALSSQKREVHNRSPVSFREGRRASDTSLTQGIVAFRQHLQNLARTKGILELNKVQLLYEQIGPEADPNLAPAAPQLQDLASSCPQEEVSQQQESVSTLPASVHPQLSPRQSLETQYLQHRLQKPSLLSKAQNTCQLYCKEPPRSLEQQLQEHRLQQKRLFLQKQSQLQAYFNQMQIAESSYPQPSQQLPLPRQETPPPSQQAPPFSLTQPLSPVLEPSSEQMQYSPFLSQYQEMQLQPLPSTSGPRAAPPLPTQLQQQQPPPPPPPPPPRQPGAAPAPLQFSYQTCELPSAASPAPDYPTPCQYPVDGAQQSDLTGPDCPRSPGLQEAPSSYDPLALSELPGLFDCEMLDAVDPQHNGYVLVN
T3 sequence (P12931 whole entry): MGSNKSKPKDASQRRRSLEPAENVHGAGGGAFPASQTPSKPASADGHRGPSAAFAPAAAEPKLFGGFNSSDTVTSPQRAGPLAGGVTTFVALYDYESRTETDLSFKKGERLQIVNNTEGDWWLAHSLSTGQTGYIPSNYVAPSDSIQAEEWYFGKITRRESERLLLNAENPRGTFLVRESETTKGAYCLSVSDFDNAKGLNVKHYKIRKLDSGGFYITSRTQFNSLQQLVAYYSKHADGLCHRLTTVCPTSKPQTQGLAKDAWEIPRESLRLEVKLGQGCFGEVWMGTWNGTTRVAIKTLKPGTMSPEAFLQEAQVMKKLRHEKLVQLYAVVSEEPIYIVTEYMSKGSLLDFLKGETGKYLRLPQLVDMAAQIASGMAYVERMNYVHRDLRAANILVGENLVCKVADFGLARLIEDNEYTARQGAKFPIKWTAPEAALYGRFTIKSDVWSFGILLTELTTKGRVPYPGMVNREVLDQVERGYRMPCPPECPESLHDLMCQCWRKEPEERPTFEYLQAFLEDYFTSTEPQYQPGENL
T6 sequence (P00519 whole entry): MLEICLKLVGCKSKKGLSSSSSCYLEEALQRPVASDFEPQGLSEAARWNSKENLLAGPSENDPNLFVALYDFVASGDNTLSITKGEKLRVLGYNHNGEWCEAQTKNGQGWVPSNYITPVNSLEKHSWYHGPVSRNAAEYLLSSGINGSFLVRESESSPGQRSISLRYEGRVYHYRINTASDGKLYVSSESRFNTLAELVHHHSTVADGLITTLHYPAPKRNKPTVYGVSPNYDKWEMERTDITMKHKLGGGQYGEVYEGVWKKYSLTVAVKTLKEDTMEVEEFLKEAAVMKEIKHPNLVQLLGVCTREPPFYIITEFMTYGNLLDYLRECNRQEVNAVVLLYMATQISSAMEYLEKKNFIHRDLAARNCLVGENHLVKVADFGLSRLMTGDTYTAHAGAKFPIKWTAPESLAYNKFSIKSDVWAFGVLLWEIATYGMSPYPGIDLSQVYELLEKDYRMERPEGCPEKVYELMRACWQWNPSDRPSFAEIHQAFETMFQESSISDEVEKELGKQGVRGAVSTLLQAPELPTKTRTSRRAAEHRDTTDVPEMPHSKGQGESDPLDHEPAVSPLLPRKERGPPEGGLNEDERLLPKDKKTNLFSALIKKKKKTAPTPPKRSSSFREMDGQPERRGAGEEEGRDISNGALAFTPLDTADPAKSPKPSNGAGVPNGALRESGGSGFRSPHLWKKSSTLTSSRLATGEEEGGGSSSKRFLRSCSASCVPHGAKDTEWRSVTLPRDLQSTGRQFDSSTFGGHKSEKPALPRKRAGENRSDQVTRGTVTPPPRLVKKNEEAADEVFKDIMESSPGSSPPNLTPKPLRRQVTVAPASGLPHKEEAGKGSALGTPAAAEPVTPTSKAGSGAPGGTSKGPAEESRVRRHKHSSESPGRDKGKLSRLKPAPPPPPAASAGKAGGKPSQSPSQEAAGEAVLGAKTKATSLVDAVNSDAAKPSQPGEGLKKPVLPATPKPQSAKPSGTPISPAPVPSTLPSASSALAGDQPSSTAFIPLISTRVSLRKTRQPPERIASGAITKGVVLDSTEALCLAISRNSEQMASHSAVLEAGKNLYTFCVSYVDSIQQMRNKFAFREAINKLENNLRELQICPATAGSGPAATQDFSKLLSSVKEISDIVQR

SMILES	Ki (SIK3) [nM]	Ki (SIK1) [nM]	Ki (Src) [nM]	Ki (EPHA2) [nM]	Ki (SIK2) [nM]	Ki (Abl) [nM]
CC(=O)N[C@@H]1CCN(c2cc(-c3c(C)cccc3F)cc3cnc(N)cc23)C1 [Example 113, N-[(3R)-1-[3-amino-7-(2-fluoro-6-methyl-phenyl)-5-isoquinolyl]pyrrolidin-3-yl]acetamide]	234	74.9	1080	> 10000	9.81	88.9
Cc1cccc(Cl)c1-c1cc(NC2CCNCC2)c2ncncc2c1 [Example 138, 6-(2-chloro-6-methyl-phenyl)-N-(4-piperidyl)quinazolin-8-amine]	15.7	3.7	333	93.4	3.12	545
Cc1cccc(F)c1-c1cc(NC2CCN(C)CC2)c2ncncc2c1 [Example 125, 6-(2-Fluoro-6-methyl-phenyl)-N-(1-methyl-4-piperidyl)quinazolin-8-amine]	5	2.99	> 1000	244	1.37	> 1000
Cc1cccc(F)c1-c1cc(N[C@@H]2CCCCN(C)C2)c2cc(N)ncc2c1 [Example 80, 7-(2-fluoro-6-methyl-phenyl)-N5-[(3R)-1-methylazepan-3-yl]isoquinoline-3,5-diamine]	4.9	0.905	48.6	> 1000	0.448	15.2
CCN1CCC(Nc2cc(-c3c(C)cccc3Cl)cc3cncnc23)CC1 [Example 131, 6-(2-chloro-6-methyl-phenyl)-N-(1-ethyl-4-piperidyl)quinazolin-8-amine]	20.9	5.39	285	75.6	5.59	237
CNC[C@@H]1CCCN(c2cc(-c3c(C)cccc3F)cc3cnc(N)cc23)C1 [Example 22, 7-(2-fluoro-6-methyl-phenyl)-5-[(3S)-3-(methylamino-methyl)-1-piperidyl]isoquinolin-3-amine]	13.6	1.67	304	227	0.563	46.6
CN[C@H]1CCCN(c2cc(-c3c(C)cccc3F)cc3cnc(N)cc23)C1 [Example 18, 7-(2-fluoro-6-methyl-phenyl)-5-[(3S)-3-(methylamino)-1-piperidyl]isoquinolin-3-amine]	7.09	0.656	53.4	100	0.196	1.88
Cc1cccc(F)c1-c1cc(N2CCC[C@@H](CN(C)C)C2)c2cc(N)ncc2c1 [Example 61, 5-[(3S)-3-[(dimethylamino)methyl]-1-piperidyl]-7-(2-fluoro-6-methyl-phenyl)isoquinolin-3-amine]	39.5	3.23	226	199	1.08	27.7
Cc1cccc(F)c1-c1cc(NC2CCN(C)CC2)c2cc(N)ncc2n1 [Example 121, 2-(2-Fluoro-6-methyl-phenyl)-N4-(1-methyl-4-piperidyl)-1,7-naphthyridine-4,6-diamine]	488	178	> 10000	2650	46	> 10000
Cc1cccc(Cl)c1-c1cc(NC2CCN(C)CC2)c2ncncc2c1 [Example 130, 6-(2-chloro-6-methyl-phenyl)-N-(1-methyl-4-piperidyl)quinazolin-8-amine]	17.2	5.53	549	85.3	2.87	> 10000
Cc1cccc(F)c1-c1cc(NC(=O)C2CCNCC2)c2cc(N)ncc2c1 [Example 44, N-[3-Amino-7-(2-fluoro-6-methyl-phenyl)-5-isoquinolyl]piperidine-4-carboxamide]	36.9	15.4	291	638	5.91	85.2
Cc1cccc(F)c1-c1cc(NC2CCNCC2)c2cc(N)ncc2c1F [Example 120, 8-Fluoro-7-(2-fluoro-6-methyl-phenyl)-N5-(4-piperidyl)isoquinoline-3,5-diamine]	22.1	3.55	> 1000	> 1000	2.43	> 1000
Cc1cccc(F)c1-c1cc(N2CC[C@H](N(C)C)C2)c2cc(N)ncc2c1 [Example 59, 5-[(3S)-3-(dimethylamino)pyrrolidin-1-yl]-7-(2-fluoro-6-methyl-phenyl)isoquinolin-3-amine]	27.4	15.3	2170	> 1000	2.87	211

Stronger by Ki (SIK3), values ahead:

Ki (SIK3) [nM]	Ki (SIK1) [nM]	Ki (Src) [nM]	Ki (EPHA2) [nM]	Ki (SIK2) [nM]	Ki (Abl) [nM]	SMILES
3.85	0.954	57	183	0.22	9.11	Cc1cccc(F)c1-c1cc(NC[C@@H]2CCCN2C)c2cc(N)ncc2c1 [Example 55, 7-(2-fluoro-6-methyl-phenyl)-N5-[[(2S)-1-methylpyrrolidin-2-yl]methyl] isoquinoline-3,5-diamine]
4.7	2	924	278	0.224	41.6	CN[C@H]1CCN(c2cc(-c3c(C)cccc3F)cc3cnc(N)cc23)C1 [Example 16, 7-(2-fluoro-6-methyl-phenyl)-5-[(3S)-3-(methylamino)pyrrolidin-1-yl]isoquinolin-3-amine]
1.65	0.463	> 1000	> 1000	0.096	2.55	Cc1cccc(F)c1-c1cc(N[C@@H]2CCCCNC2)c2cc(N)ncc2c1 [Example 17, N5-[(3R)-azepan-3-yl]-7-(2-fluoro-6-methyl-phenyl)isoquinoline-3,5-diamine]
0.339	0.176	19.3	18.1	0.0784	17.4	Cc1cccc(Cl)c1-c1cc(NC2CCN(C)CC2)c2nc(N)ncc2c1 [Example 129, 6-(2-chloro-6-methyl-phenyl)-N8-(1-methyl-4-piperidyl)quinazoline-2,8-diamine]
0.504	1.39	413	> 1000	0.155	14.8	Cc1cccc(F)c1-c1cc(NC2CCNCC2)c2cc(NC(C)C)ncc2c1 [Example 28, 7-(2-fluoro-6-methyl-phenyl)-N3-isopropyl-N5-(4-piperidyl)isoquinoline-3,5-diamine]
0.45	0.317	46.3	58.8	0.0399	8.63	Cc1cccc(F)c1-c1cc(NC2CCN(C)CC2)c2nc(N)ncc2c1 [Example 132, 6-(2-fluoro-6-methyl-phenyl)-N8-(1-methyl-4-piperidyl)quinazoline-2,8-diamine]
0.966	0.535	32.1	47.6	0.101	4.83	Cc1cccc(F)c1-c1cc(NC[C@@H]2CCCNC2)c2cc(N)ncc2c1 [Example 10, 7-(2-fluoro-6-methyl-phenyl)-N5-[[(3R)-3-piperidyl]methyl]isoquinoline-3,5-diamine]
3.16	2.81	220	242	0.532	24.9	Cc1cccc(F)c1-c1cc(NC2CNC2)c2ccncc2c1 [Example 51, N-(azetidin-3-yl)-7-(2-fluoro-6-methyl-phenyl)isoquinolin-5-amine]
1.94	1.01	396	156	0.155	19.4	CNC1CCN(c2cc(-c3c(C)cccc3F)cc3cnc(N)cc23)CC1 [Example 15, 7-(2-fluoro-6-methyl-phenyl)-5-[4-(methylamino)-1-piperidyl]isoquinolin-3-amine]
3.23	1.27	98	18.9	0.983	66.1	Cc1cccc(Cl)c1-c1cc(NC2CCNCC2)c2ccncc2c1 [Example 50, 7-(2-chloro-6-methyl-phenyl)-N-(4-piperidyl) isoquinolin-5-amine]
0.447	0.381	97.4	165	0.056	19.3	CNC1CN(c2cc(-c3c(C)cccc3F)cc3cnc(N)cc23)C1 [Example 29, 7-(2-Fluoro-6-methyl-phenyl)-5-[3-(methylamino)azetidin-1-yl]isoquinolin-3-amine]
3.74	1.13	197	80.1	0.302	26.5	Cc1cccc(F)c1-c1cc(NC[C@H]2CCCN(C)C2)c2cc(N)ncc2c1 [Example 77, 7-(2-fluoro-6-methyl-phenyl)-N5-[[(3R)-1-methyl-3-piperidyl]methyl] isoquinoline-3,5-diamine]
4.57	3.73	285	264	0.716	35.9	Cc1cccc(F)c1-c1cc(NC2CN(C)C2)c2ccncc2c1 [Example 65, 7-(2-Fluoro-6-methyl-phenyl)-N-(1-methylazetidin-3-yl)isoquinolin-5-amine]

Reference: patent US12637428B2, “Isoquinoline derivatives as SIK2 inhibitors” (Cancer Research Technology Limited, priority 2019, dated 2026)
